In patent publication US20210213137A1, “COMPOSITIONS TO TREAT ULTRAVIOLET (UV)-INDUCED SKIN INJURY” (Mayo Foundation for Medical Education and Research, priority 2016, published 2021):

Legend:
mouse ears = assay: UVB-induced ear edema (ear thickness) in mice; assay type: in vivo
Text: FIG. 1A. Timeline of the acute and chronic effects of UV-induced skin injury. FIG. 1B. Quantitative PCR was used to measure induction of VEGF transcript in mouse skin upon exposure to various doses of UVB (n=3 mice/group). FIG. 1C. Representative photographs of mouse ears two days after UVB exposure. UVB induces angiogenesis in the ear of mice. FIG. 1D. Systemic administration of VEGF antibody 2C3 reduces edema as shown by 50% decrease in ear thickness (p=0.0101, n=4).
(§1) FIG. 2A. […] FIG. 2B. […] 1×1 cm are on the right flank of the mice were exposed to UVB 3 times/week for 3 weeks (n=5). Either vehicle or GNP-VEGF antibody was applied to the area 2 hours after exposure. FIG. 2C. […] All treatments were applied 2 hours post-UVB exposure. Data representative of 2 experiments, n=5. Ear thickness was measured 2 days after UVB exposure. Avastin® and 2C3 are VEGF antibodies. FIG. 2D. Topical administration of GNP-VEGF antibody or small molecular inhibitor (SMI) of VEGF signaling, sorafenib, reduces edema. All treatments were applied 2 hours post UVB exposure. Data representative of 2 experiments, n=5. Ear thickness was measured 2 days after UVB exposure.

mice skin = assay: UVB-induced skin injury in mice (chronic and acute UVB exposure); assay type: in vivo; conditions: topical administration; summary statement
Method: as §1
Vascular endothelial growth factor (VEGF) was induced by UVB light and works concomitantly with ROS to induce the pathway, and was identified as an upstream regulator of the inflammation pathway.

primary melanoma tumor = assay: Mouse model of melanoma with chronic UVB exposure; assay type: in vivo, mice; conditions: summary statement
Method: FIG. 3A. […] For Tumor+UV group * p<0.05, ** p<0.01 compared to tumor only, § p<0.05 compared to Tumor+UV+Tx group. No significant difference between tumor only and tumor+UV+Tx group at all time points. Data based on 3 experiments (n=5). FIG. 3B. […] FIG. 3C. Quantification of vessel density via CD31 staining, a marker of vessels.
FIG. 4A. Schematic diagram of experimental setup corresponding to FIG. 3A. All mice were injected with tumor on their right flank on Day 0. Luciferase imaging was done on day 5. Based on luciferase imaging data, mice were assigned to different groups (no UV—tumor only, tumor+UV, and tumor+UV+Tx). Starting on day 6, 1×1 cm area on the tumor was exposed to UVB. Vehicle or treatment was applied 2 hours post UVB exposure. A subset of the mice (n=4) was sacrificed on day 6, 10, 14 and 19 for analysis. FIG. 4B. Survival curve of mice in a separate analogous tumor study to the one represented in FIG. 3A.

Row | Compound | acute effects of UV-induced skin damage (mouse ears; topical administration, mice) | edema (ear thickness) (mouse ears; topical, 2 hours post UVB exposure, ear thickness 2 days after UVB, n=5, FIG. 2D) | skin injury following UVB exposure (mice skin) | melanoma tumor growth (primary melanoma tumor)
1 | CNC(=O)c1cc(Oc2ccc(NC(=O)Nc3ccc(Cl)c(C(F)(F)F)c3)cc2)ccn1 [sorafenib] | inhibited the acute effects of UV-induced skin damage | reduces edema | prevented and/or reduced skin injury | 
2 | bevacizumab [Avastin®] |  |  | prevented and/or reduced skin injury | prevented and/or reduced melanoma tumor growth
